From patent US20250353891A1 (MEDIMMUNE LIMITED, priority 2022, published 2025)
Starred links: 1 amine or outer side, 2 acyl side, 3 side chain; linkers in the order of their positions; H or OH if unused. Non-standard residues stand in square brackets, D forms with d. Residues, ends and D or L forms follow the SMILES beside them. Groups on a side chain read outwards from the residue. *: point of attachment. C20 diacid = O=C(O)CCCCCCCCCCCCCCCCCCC(=O)*; C18 diacid = O=C(O)CCCCCCCCCCCCCCCCC(=O)*; γGlu = O=C(O)[C@H](CCC(=O)[*:2])N[*:1]; αMeF = C[C@](N)(Cc1ccccc1)C(=O)O; AEEA = NCCOCCOCC(=O)O; Aib = CC(C)(N)C(=O)O

Assays:
[1] = molecular target: human glucagon receptor (hGCGR) (Homo sapiens, UniProt P47871); test: cAMP production (HTRF) in CHO cells expressing hGCGR; type: cell-based; set-up: expressed in transfected cells; conditions: Table 7, peptides modified at position 20; cAMP in CHO hGCGR cells; geometric mean; read-out: hGluc-R EC50
Summary of the method: (§1)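 Potency values represent EC50 from 4-parameter logistic curves of HTRF % Delta F signal. Receptor-expressing CHO cells (hGCGR 2×10^5 cells/mL, hGLP-1R 1×10^5 cells/mL) were exposed for 30 min at room temperature before two-step cAMP detection.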

[2] = molecular target: human GLP-1 receptor (hGLP-1R) (Homo sapiens, UniProt P43220); test: cAMP production (HTRF) in CHO cells expressing hGLP-1R; type: cell-based; set-up: expressed in transfected cells; conditions: for EC50: Table 7, peptides modified at position 20, cAMP in CHO hGLP-1R cells, geometric mean, read-out: hGLP-1R EC50; for % Relative Potency Ratio: Table 7, % GLP-1R activity relative to GLP-1 / % GlucR activity relative to glucagon
Summary of the method: as §1

human glucagon receptor (hGCGR), sequence (P47871 26-477): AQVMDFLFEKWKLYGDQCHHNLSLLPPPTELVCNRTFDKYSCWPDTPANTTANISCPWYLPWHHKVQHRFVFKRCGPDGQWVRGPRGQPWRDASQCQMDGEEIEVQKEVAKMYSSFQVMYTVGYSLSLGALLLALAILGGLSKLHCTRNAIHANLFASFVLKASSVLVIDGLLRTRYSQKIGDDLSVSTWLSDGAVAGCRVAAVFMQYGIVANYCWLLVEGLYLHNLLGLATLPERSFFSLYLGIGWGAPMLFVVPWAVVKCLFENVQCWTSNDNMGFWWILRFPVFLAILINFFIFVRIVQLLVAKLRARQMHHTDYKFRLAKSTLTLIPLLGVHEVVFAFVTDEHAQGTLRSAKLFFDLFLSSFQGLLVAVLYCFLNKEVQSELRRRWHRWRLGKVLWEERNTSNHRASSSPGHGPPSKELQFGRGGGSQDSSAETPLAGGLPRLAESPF
human GLP-1 receptor (hGLP-1R), sequence (P43220 24-463): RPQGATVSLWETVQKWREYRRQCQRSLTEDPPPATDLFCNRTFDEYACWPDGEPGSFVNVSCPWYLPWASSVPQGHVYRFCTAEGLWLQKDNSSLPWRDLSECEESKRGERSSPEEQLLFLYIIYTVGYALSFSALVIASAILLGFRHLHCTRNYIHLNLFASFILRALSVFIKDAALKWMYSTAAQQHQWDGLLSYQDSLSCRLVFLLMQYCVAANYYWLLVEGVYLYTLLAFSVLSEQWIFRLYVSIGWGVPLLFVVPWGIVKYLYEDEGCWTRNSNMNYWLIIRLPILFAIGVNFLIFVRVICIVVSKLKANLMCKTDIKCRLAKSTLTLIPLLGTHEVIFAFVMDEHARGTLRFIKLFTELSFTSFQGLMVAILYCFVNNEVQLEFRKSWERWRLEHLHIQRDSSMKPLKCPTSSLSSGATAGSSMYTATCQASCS

Row | SMILES | EC50 [1] | EC50 [2] | % Relative Potency Ratio [2]
1 | CC[C@H](C)[C@H](NC(=O)C(C)(C)NC(=O)[C@H](CCC(N)=O)NC(=O)[C@@H](NC(=O)[C@](C)(Cc1ccccc1)NC(=O)[C@H](CC(=O)O)NC(=O)[C@H](CCCCNC(=O)COCCOCCNC(=O)CCCCCCCCCCCCCCCCC(=O)O)NC(=O)[C@H](C)NC(=O)[C@H](C)NC(=O)[C@H](CCCNC(=N)N)NC(=O)[C@H](CO)NC(=O)[C@H](CC(=O)O)NC(=O)[C@H](CC(C)C)NC(=O)[C@](C)(Cc1ccccc1)NC(=O)[C@H](CCCCN)NC(=O)[C@H](CO)NC(=O)[C@@H](NC(=O)[C@H](CC(=O)O)NC(=O)[C@H](CO)NC(=O)[C@@H](NC(=O)[C@](C)(Cc1ccccc1)NC(=O)[C@H](CO)NC(=O)CNC(=O)[C@H](Cc1c[nH]cn1)NC(=O)C(C)(C)NC(=O)[C@@H](N)Cc1c[nH]cn1)[C@@H](C)O)C(C)C)C(C)C)C(=O)N[C@@H](C)C(=O)N[C@@H](CC(N)=O)C(=O)N[C@H](C(N)=O)[C@@H](C)O [Peptide 273] (H-H[Aib]HGS[αMeF]TSDVSK[αMeF]LDSRAAK([AEEA-C18 diacid])D[αMeF]VQ[Aib]IANT-NH2) | 0.0233 nM | 0.0221 nM | 2.1
2 | CC[C@H](C)[C@H](NC(=O)C(C)(C)NC(=O)[C@H](CCC(N)=O)NC(=O)[C@@H](NC(=O)[C@](C)(Cc1ccccc1)NC(=O)[C@H](CC(=O)O)NC(=O)[C@H](CCCCNC(=O)COCCOCCNC(=O)CC[C@H](NC(=O)CC[C@H](NC(=O)CCCCCCCCCCCCCCCCC(=O)O)C(=O)O)C(=O)O)NC(=O)[C@H](C)NC(=O)[C@H](C)NC(=O)[C@H](CCCNC(=N)N)NC(=O)[C@H](CO)NC(=O)[C@H](CC(=O)O)NC(=O)[C@H](CC(C)C)NC(=O)[C@](C)(Cc1ccccc1)NC(=O)[C@H](CCCCN)NC(=O)[C@H](CO)NC(=O)[C@@H](NC(=O)[C@H](CC(=O)O)NC(=O)[C@H](CO)NC(=O)[C@@H](NC(=O)[C@](C)(Cc1ccccc1)NC(=O)[C@H](CO)NC(=O)CNC(=O)[C@H](Cc1c[nH]cn1)NC(=O)C(C)(C)NC(=O)[C@@H](N)Cc1c[nH]cn1)[C@@H](C)O)C(C)C)C(C)C)C(=O)N[C@@H](C)C(=O)N[C@@H](CC(N)=O)C(=O)N[C@H](C(N)=O)[C@@H](C)O [Peptide 274] (H-H[Aib]HGS[αMeF]TSDVSK[αMeF]LDSRAAK([AEEA-γGlu-γGlu-C18 diacid])D[αMeF]VQ[Aib]IANT-NH2) | 0.0313 nM | 0.0271 nM | 2.3
3 | CC[C@H](C)[C@H](NC(=O)C(C)(C)NC(=O)[C@H](CCC(N)=O)NC(=O)[C@@H](NC(=O)[C@](C)(Cc1ccccc1)NC(=O)[C@H](CC(=O)O)NC(=O)[C@H](CCCCNC(=O)CC[C@H](NC(=O)CC[C@H](NC(=O)CCCCCCCCCCCCCCCCCCC(=O)O)C(=O)O)C(=O)O)NC(=O)[C@H](C)NC(=O)[C@H](C)NC(=O)[C@H](CCCNC(=N)N)NC(=O)[C@H](CO)NC(=O)[C@H](CC(=O)O)NC(=O)[C@H](CC(C)C)NC(=O)[C@](C)(Cc1ccccc1)NC(=O)[C@H](CCCCN)NC(=O)[C@H](CO)NC(=O)[C@@H](NC(=O)[C@H](CC(=O)O)NC(=O)[C@H](CO)NC(=O)[C@@H](NC(=O)[C@](C)(Cc1ccccc1)NC(=O)[C@H](CO)NC(=O)CNC(=O)[C@H](Cc1c[nH]cn1)NC(=O)C(C)(C)NC(=O)[C@@H](N)Cc1c[nH]cn1)[C@@H](C)O)C(C)C)C(C)C)C(=O)N[C@@H](C)C(=O)N[C@@H](CC(N)=O)C(=O)N[C@H](C(N)=O)[C@@H](C)O [Peptide 275] (H-H[Aib]HGS[αMeF]TSDVSK[αMeF]LDSRAAK([γGlu-γGlu-C20 diacid])D[αMeF]VQ[Aib]IANT-NH2) | 0.175 nM | 0.111 nM | 3.1
4 | CC[C@H](C)[C@H](NC(=O)C(C)(C)NC(=O)[C@H](CCC(N)=O)NC(=O)[C@@H](NC(=O)[C@](C)(Cc1ccccc1)NC(=O)[C@H](CC(=O)O)NC(=O)[C@H](CCCCNC(=O)CC[C@H](NC(=O)CCCCCCCCCCCCCCCCCCC(=O)O)C(=O)O)NC(=O)[C@H](C)NC(=O)[C@H](C)NC(=O)[C@H](CCCNC(=N)N)NC(=O)[C@H](CO)NC(=O)[C@H](CC(=O)O)NC(=O)[C@H](CC(C)C)NC(=O)[C@](C)(Cc1ccccc1)NC(=O)[C@H](CCCCN)NC(=O)[C@H](CO)NC(=O)[C@@H](NC(=O)[C@H](CC(=O)O)NC(=O)[C@H](CO)NC(=O)[C@@H](NC(=O)[C@](C)(Cc1ccccc1)NC(=O)[C@H](CO)NC(=O)CNC(=O)[C@H](Cc1c[nH]cn1)NC(=O)C(C)(C)NC(=O)[C@@H](N)Cc1c[nH]cn1)[C@@H](C)O)C(C)C)C(C)C)C(=O)N[C@@H](C)C(=O)N[C@@H](CC(N)=O)C(=O)N[C@H](C(N)=O)[C@@H](C)O [Peptide 276] (H-H[Aib]HGS[αMeF]TSDVSK[αMeF]LDSRAAK([γGlu-C20 diacid])D[αMeF]VQ[Aib]IANT-NH2) | 0.0914 nM | 0.143 nM | 1.3

Second part, the compound after the results:

Row | EC50 [1] | EC50 [2] | % Relative Potency Ratio [2] | SMILES
5 | 0.0573 nM | 0.0495 nM | 2.3 | CC[C@H](C)[C@H](NC(=O)C(C)(C)NC(=O)[C@H](CCC(N)=O)NC(=O)[C@@H](NC(=O)[C@](C)(Cc1ccccc1)NC(=O)[C@H](CC(=O)O)NC(=O)[C@H](CCCCNC(=O)COCCOCCNC(=O)COCCOCCNC(=O)CCCCCCCCCCCCCCCCCCC(=O)O)NC(=O)[C@H](C)NC(=O)[C@H](C)NC(=O)[C@H](CCCNC(=N)N)NC(=O)[C@H](CO)NC(=O)[C@H](CC(=O)O)NC(=O)[C@H](CC(C)C)NC(=O)[C@](C)(Cc1ccccc1)NC(=O)[C@H](CCCCN)NC(=O)[C@H](CO)NC(=O)[C@@H](NC(=O)[C@H](CC(=O)O)NC(=O)[C@H](CO)NC(=O)[C@@H](NC(=O)[C@](C)(Cc1ccccc1)NC(=O)[C@H](CO)NC(=O)CNC(=O)[C@H](Cc1c[nH]cn1)NC(=O)C(C)(C)NC(=O)[C@@H](N)Cc1c[nH]cn1)[C@@H](C)O)C(C)C)C(C)C)C(=O)N[C@@H](C)C(=O)N[C@@H](CC(N)=O)C(=O)N[C@H](C(N)=O)[C@@H](C)O [Peptide 277] (H-H[Aib]HGS[αMeF]TSDVSK[αMeF]LDSRAAK([AEEA-AEEA-C20 diacid])D[αMeF]VQ[Aib]IANT-NH2)
6 | 0.0835 nM | 0.0789 nM | 2.1 | CC[C@H](C)[C@H](NC(=O)C(C)(C)NC(=O)[C@H](CCC(N)=O)NC(=O)[C@@H](NC(=O)[C@](C)(Cc1ccccc1)NC(=O)[C@H](CC(=O)O)NC(=O)[C@H](CCCCNC(=O)COCCOCCNC(=O)CCCCCCCCCCCCCCCCCCC(=O)O)NC(=O)[C@H](C)NC(=O)[C@H](C)NC(=O)[C@H](CCCNC(=N)N)NC(=O)[C@H](CO)NC(=O)[C@H](CC(=O)O)NC(=O)[C@H](CC(C)C)NC(=O)[C@](C)(Cc1ccccc1)NC(=O)[C@H](CCCCN)NC(=O)[C@H](CO)NC(=O)[C@@H](NC(=O)[C@H](CC(=O)O)NC(=O)[C@H](CO)NC(=O)[C@@H](NC(=O)[C@](C)(Cc1ccccc1)NC(=O)[C@H](CO)NC(=O)CNC(=O)[C@H](Cc1c[nH]cn1)NC(=O)C(C)(C)NC(=O)[C@@H](N)Cc1c[nH]cn1)[C@@H](C)O)C(C)C)C(C)C)C(=O)N[C@@H](C)C(=O)N[C@@H](CC(N)=O)C(=O)N[C@H](C(N)=O)[C@@H](C)O [Peptide 278] (H-H[Aib]HGS[αMeF]TSDVSK[αMeF]LDSRAAK([AEEA-C20 diacid])D[αMeF]VQ[Aib]IANT-NH2)
7 | 0.15 nM | 0.0865 nM | 3.4 | CC[C@H](C)[C@H](NC(=O)C(C)(C)NC(=O)[C@H](CCC(N)=O)NC(=O)[C@@H](NC(=O)[C@](C)(Cc1ccccc1)NC(=O)[C@H](CC(=O)O)NC(=O)[C@H](CCCCNC(=O)COCCOCCNC(=O)CC[C@H](NC(=O)CC[C@H](NC(=O)CCCCCCCCCCCCCCCCCCC(=O)O)C(=O)O)C(=O)O)NC(=O)[C@H](C)NC(=O)[C@H](C)NC(=O)[C@H](CCCNC(=N)N)NC(=O)[C@H](CO)NC(=O)[C@H](CC(=O)O)NC(=O)[C@H](CC(C)C)NC(=O)[C@](C)(Cc1ccccc1)NC(=O)[C@H](CCCCN)NC(=O)[C@H](CO)NC(=O)[C@@H](NC(=O)[C@H](CC(=O)O)NC(=O)[C@H](CO)NC(=O)[C@@H](NC(=O)[C@](C)(Cc1ccccc1)NC(=O)[C@H](CO)NC(=O)CNC(=O)[C@H](Cc1c[nH]cn1)NC(=O)C(C)(C)NC(=O)[C@@H](N)Cc1c[nH]cn1)[C@@H](C)O)C(C)C)C(C)C)C(=O)N[C@@H](C)C(=O)N[C@@H](CC(N)=O)C(=O)N[C@H](C(N)=O)[C@@H](C)O [Peptide 279] (H-H[Aib]HGS[αMeF]TSDVSK[αMeF]LDSRAAK([AEEA-γGlu-γGlu-C20 diacid])D[αMeF]VQ[Aib]IANT-NH2)
8 | 0.155 nM | 0.0783 nM | 3.9 | CC[C@H](C)[C@H](NC(=O)C(C)(C)NC(=O)[C@H](CCC(N)=O)NC(=O)[C@@H](NC(=O)[C@](C)(Cc1ccccc1)NC(=O)[C@H](CC(=O)O)NC(=O)[C@H](CCCCNC(=O)COCCOCCNC(=O)COCCOCCNC(=O)CC[C@H](NC(=O)CCCCCCCCCCCCCCCCCCC(=O)O)C(=O)O)NC(=O)[C@H](C)NC(=O)[C@H](C)NC(=O)[C@H](CCCNC(=N)N)NC(=O)[C@H](CO)NC(=O)[C@H](CC(=O)O)NC(=O)[C@H](CC(C)C)NC(=O)[C@](C)(Cc1ccccc1)NC(=O)[C@H](CCCCN)NC(=O)[C@H](CO)NC(=O)[C@@H](NC(=O)[C@H](CC(=O)O)NC(=O)[C@H](CO)NC(=O)[C@@H](NC(=O)[C@](C)(Cc1ccccc1)NC(=O)[C@H](CO)NC(=O)CNC(=O)[C@H](Cc1c[nH]cn1)NC(=O)C(C)(C)NC(=O)[C@@H](N)Cc1c[nH]cn1)[C@@H](C)O)C(C)C)C(C)C)C(=O)N[C@@H](C)C(=O)N[C@@H](CC(N)=O)C(=O)N[C@H](C(N)=O)[C@@H](C)O [Peptide 280] (H-H[Aib]HGS[αMeF]TSDVSK[αMeF]LDSRAAK([AEEA-AEEA-γGlu-C20 diacid])D[αMeF]VQ[Aib]IANT-NH2)
